Source: patent US20070146686A1, “Non-invasive method to monitor microcirculation” (priority 2004, published 2007)

System: skin
Details: topical application on the skin; images at 0.5, 2, 5, 10 minutes following application; listed as methyl nicotineate amide
Source text: Another way of administering the agent is by topical application on the skin. […] This agent is frequently used in skin testing for assessing the sensitivity of the skin.
In this example a modern digital camera technology is utilized, exemplified by Canon IXUS V3, Canon Svenska AB, Solna, Sweden. […] In this approach a flash of white light—or alternatively continuous light—(A, FIG. 4) illuminates the skin (B, FIG. 4) under study after having been linearly polarized by a polarizer (C, FIG. 4) positioned in front of the flash lamp—or a lamp delivering continuous light—(D, FIG. 4). In the skin surface (E, FIG. 4), a fraction of the polarized light is directly reflected towards the camera aperture with essentially no change in polarization. […]
At least two of the normalized data matrixes representing the different colors are then further processed to form an output data matrix (L, FIG. 4), where each value corresponds to the amount of vasodilatation in the actual source point in tissue. In this example, the algorithm generates an output data matrix of which each element is calculated by subtracting the green value from the red value and divides the difference by the sum of the red and the green value of each element of the normalized original data matrixes.

Question: How did the “local vasodilatation in skin” value turn out when methyl nicotinate amide was run?
Answer: Vasodilatation
